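Exposure lasted 48 hours, with cells grown in 96-well plates and compounds tested at five concentrations. Here, GI50 denotes the concentration required for 50% inhibition of growth. Definition used: TGI = concentration required for complete inhibition of growth.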
What was measured:
Assay in all cases: NCI-60 cell line screen, 48 h
HT29 colon = system: HT29 colon
LOX IMVI melanoma = system: LOX IMVI melanoma
SF-539 CNS = system: SF-539 CNS
SK-MEL-28 melanoma = system: SK-MEL-28 melanoma
UACC-257 melanoma = system: UACC-257 melanoma
NCI-H23 lung = system: NCI-H23 lung
SF-295 CNS = system: SF-295 CNS
U251 CNS = system: U251 CNS
SW-620 colon = system: SW-620 colon
SNB-19 CNS = system: SNB-19 CNS

SMILES | GI50 (HT29 colon) [µM] | TGI (HT29 colon) [µM] | GI50 (LOX IMVI melanoma) [µM] | TGI (LOX IMVI melanoma) [µM] | GI50 (SF-539 CNS) [µM] | TGI (SF-539 CNS) [µM] | GI50 (SK-MEL-28 melanoma) [µM] | TGI (SK-MEL-28 melanoma) [µM] | GI50 (UACC-257 melanoma) [µM] | TGI (UACC-257 melanoma) [µM] | GI50 (NCI-H23 lung) [µM] | TGI (NCI-H23 lung) [µM] | GI50 (SF-295 CNS) [µM] | TGI (SF-295 CNS) [µM] | GI50 (U251 CNS) [µM] | TGI (U251 CNS) [µM] | GI50 (SW-620 colon) [µM] | TGI (SW-620 colon) [µM] | GI50 (SNB-19 CNS) [µM] | TGI (SNB-19 CNS) [µM]
O=C1C=C(NCCO)c2nccc3c2c1nc1ccccc13 | 26.9 | > 100 | 15.8 | 95 | 22.9 | 73.1 | 41.4 | > 100 | 32.2 | > 100 | 19.1 | 67.3 | 18.5 | > 100 | 23.4 | > 100 | 15.5 | > 100 | 34 | > 100
COC(=O)c1c(O)ccc(O)c1C(C(C)=O)C(C)=O |  | > 100 |  | > 100 |  | > 100 |  | > 100 |  | > 100 |  | > 100 |  | > 100 |  | > 100 |  | > 100 |  | > 100
Cc1ccccc1NC(=O)Cc1nc2ccccc2s1 |  | 38.4 |  | 30.5 |  | 34.7 |  | 32.9 |  | 30.8 |  | 27.8 |  | 29.2 |  | 24.1 |  | 36 |  | > 100
Cn1c(CCCC(=O)O)nc2cc(N(CCCl)CCCl)ccc21 | > 100 | > 100 | > 58.8 | > 100 | 65.1 | > 94.1 | > 100 | > 100 | > 94.7 | > 100 | 74.9 | > 100 | > 64.4 | > 100 | 72.7 | > 100 | 78.4 | > 100 | 97.9 | > 100
CCc1nc(C)cn1C(=O)OCc1nc2nc(Cl)nc(N3CCOCC3)c2[nH]1 | 1 | 4.04 | 1.02 | 2.33 | 1.27 | 2.54 | 1.78 | 3.2 | 1.6 | 3.26 | 1.55 | 3.35 | 2.79 | 11.7 | 1.63 | 3.42 | 1.11 | 2.69 | 1.43 | 2.84
CCN(CC)CCNC(=O)c1cccc2c1-c1ccccc1C2=O | > 100 | > 100 | > 100 | > 100 | 95.1 | > 100 | > 100 | > 100 | > 100 | > 100 | > 100 | > 100 | > 100 | > 100 | > 100 | > 100 | 90.1 | > 100 | > 100 | > 100
